{
  "source": "patent US20100086615A1",
  "about": "“AGENT FOR TREATMENT OF PULMONARY DISEASE” (KYUSHU UNIVERSITY, NATIONAL UNIVERSITY CORPORATION, priority 2007, published 2010)",
  "tested_on": "LPS-induced acute lung injury mice",
  "test": "Intratracheal administration in LPS-induced acute lung injury model; cells counted in bronchoalveolar lavage fluid",
  "format": "in vivo, mice (male BALB/c)",
  "conditions": "non-polymer-incorporated solution in saline (50 μL), intratracheal, 0.2, 2 or 20 μg/body; n=8",
  "data": [
    {"smiles": "O=C([O-])C[C@H](O)C[C@H](O)/C=C/c1c(C2CC2)nc2ccccc2c1-c1ccc(F)cc1.O=C([O-])C[C@H](O)C[C@H](O)/C=C/c1c(C2CC2)nc2ccccc2c1-c1ccc(F)cc1.[Ca+2]", "note": "[pitavastatin calcium]", "values": [
      {"measurement": "Effect of inhibiting migration of inflammatory cells (result in words)", "result": "did not exhibit the effect of inhibiting migration of inflammatory cells"}
    ]}
  ]
}
